Patent US10118925B2, “Imidazo[4,5-c] ring compounds containing substituted guanidine groups” (3M INNOVATIVE PROPERTIES COMPANY, priority 2015, dated 2018)
Where a name gives a salt, the structure may show the parent alone.

Tests used:
[1] = system: Human peripheral blood mononuclear cells (PBMC); test: Cytokine induction in human cells (PBMC): IFN-alpha by ELISA; type: cell-based; details: 21-24 hrs, lowest concentration inducing cytokine at least 2× negative control, tested 0.0001-10 micromolar
Protocol: (§1) Whole blood was obtained from healthy human donors and collected by venipuncture into vacutainer tubes or syringes containing EDTA. Human peripheral blood mononuclear cells (PBMC) were purified from the whole blood by density gradient centrifugation. Histopaque 1077 (15 mL, Sigma, St. Louis, Mo.) was transferred to 6×50 mL sterile polypropylene conical tubes. The Histopaque was overlayed with 15-25 mL of blood diluted 1:2 in Hank's Balanced Salts Solution (HBSS) (Gibco, Life Technology, Grand Island N.Y.). The tubes were then centrifuged at 1370 rpm for 30 minutes at 20° C., with no brake (400×g, GH 3.8 A Rotor).
(§2) The interface (buffy coat) containing the PBMC was collected and placed in a new sterile 50 mL conical polypropylene centrifuge tube. The PBMC were mixed with an equal volume of HBSS (about 20 mL from the interface and about 20 mL of HBSS), and then centrifuged at 1090 rpm, 10 min, 20° C., with brake (270×g, GH 3.8 A Rotor). After completing centrifugation, the cells were resuspended in 2-3 mL ACK Red blood cell lysis buffer (ammonium chloride potassium solution, Gibco, Life Technology) and incubated for 2-5 minutes at 20° C. […]
(§3) The number of viable cells were determined by counting with a Miltenyi FACS instrument (Miltenyi Biotec Inc., San Diego, Calif.) or by using a hemacytometer. […] Ten microliters of the diluted cells were then applied to the hemacytometer, and the number of viable PBMC were determined by microscopy. […]
(§4) IFN-alpha cytokine levels (pg/mL) were measured by ELISA (human IFN-α, pan specific, Mabtech, Cinncinnati, Ohio), IFN-gamma, TNF-alpha, and IP-10 cytokine levels (pg/mL) were measured by multiplex bead assay (magnetic beads, R & D Systems Minneapolis, Minn.) according to the manufacturer's instructions.
(§5) Specifically, the minimum effective concentration of each compound (micromolar) was determined as the lowest concentration of the compound that induced a measured cytokine response at a level ([…]) that was at least 2× greater than that observed with the negative control wells.

[2] = system: Human peripheral blood mononuclear cells (PBMC); test: Cytokine induction in human cells (PBMC): IFN-gamma by multiplex bead assay; type: cell-based; details: 21-24 hrs, lowest concentration inducing cytokine at least 2× negative control, tested 0.0001-10 micromolar
Protocol: as §1, §2, §3, §4, §5

[3] = system: Human peripheral blood mononuclear cells (PBMC); test: Cytokine induction in human cells (PBMC): TNF-alpha by multiplex bead assay; type: cell-based; details: 21-24 hrs, lowest concentration inducing cytokine at least 2× negative control, tested 0.0001-10 micromolar
Protocol: as §1, §2, §3, §4, §5

[4] = system: Human peripheral blood mononuclear cells (PBMC); test: Cytokine induction in human cells (PBMC): IP-10 by multiplex bead assay; type: cell-based; details: 21-24 hrs, lowest concentration inducing cytokine at least 2× negative control, tested 0.0001-10 micromolar
Protocol: as §1, §2, §3, §4, §5

CCCCc1nc2c(N)nc3ccccc3c2n1CCCCNC(=N)NC(C)C (as salt: hydrochloride) [Example 1, 1-[4-(4-amino-2-butyl-imidazo[4,5-c]quinolin-1-yl)butyl]-3-isopropyl-guanidine dihydrochloride]
melting point: 210 to 216 °C

CCCCc1nc2c(N)nc3ccccc3c2n1CCCCN/C(=N/C(C)C)NC(C)C (as salt: hydrochloride) [Example 2, 1-[4-(4-amino-2-butyl-imidazo[4,5-c]quinolin-1-yl)butyl]-2,3-diisopropyl-guanidine Dihydrochloride]
melting point: 172 to 174 °C

CCCCc1nc2c(N)nc3ccccc3c2n1CCCCNC(=N)NC(C)C [Example 1, 1-[4-(4-amino-2-butyl-imidazo[4,5-c]quinolin-1-yl)butyl]-3-isopropyl-guanidine dihydrochloride]
MEC to Induce Cytokine IFN-alpha [1]: 0.01 µM | MEC to Induce Cytokine IFN-gamma [2]: 0.1 µM | MEC to Induce Cytokine TNF-alpha [3]: 0.1 µM | MEC to Induce Cytokine IP-10 [4]: 0.001 µM

CCCCc1nc2c(N)nc3ccccc3c2n1CCCCN/C(=N/C(C)C)NC(C)C [Example 2, 1-[4-(4-amino-2-butyl-imidazo[4,5-c]quinolin-1-yl)butyl]-2,3-diisopropyl-guanidine Dihydrochloride]
MEC to Induce Cytokine IFN-alpha [1]: 0.1 µM | MEC to Induce Cytokine IFN-gamma [2]: 1 µM | MEC to Induce Cytokine TNF-alpha [3]: 10 µM | MEC to Induce Cytokine IP-10 [4]: 0.1 µM

CC(C)Cn1cnc2c(N)nc3ccccc3c21 [imiquimod, reference compound]
MEC to Induce Cytokine IFN-alpha [1]: 10 µM | MEC to Induce Cytokine IFN-gamma [2]: 10 µM | MEC to Induce Cytokine TNF-alpha [3]: 10 µM | MEC to Induce Cytokine IP-10 [4]: 10 µM
